The values below are quoted from earlier work in patent EP0353388A2, “Floor treatment product” (DYNA-5, INC., priority 1988, dated 1990).

For this series the following is noted: first dissociation constant of the acid.

As for `O=C(O)C(=O)O` [oxalic acid], the “first pK value (pK^I)” value is recorded as 1.25.

Regarding `O=C(O)CN(CCN(CC(=O)O)CC(=O)O)CC(=O)O` [ethylenediaminetetraacetic acid], the “first pK value (pK^I)” value is listed as 2.00.
